# Changes are numbered by the printed parent chain. Where two headings read alike, the source gives them in different places.
# Key:
# [1] = target: T1, hAR (human androgen receptor, baculovirus/Sf9 generated extracts) (Homo sapiens, UniProt P10275); experiment: AR Binding Assay (competitive binding with 3H-DHT tracer); conditions: 1 nM 3H-DHT, one hour at 4° C., mean of multiple tests
# T1 construct: made in house; host or cells: baculovirus/Sf9 insect cells (crude extract)
# T1 sequence (P10275 1-920): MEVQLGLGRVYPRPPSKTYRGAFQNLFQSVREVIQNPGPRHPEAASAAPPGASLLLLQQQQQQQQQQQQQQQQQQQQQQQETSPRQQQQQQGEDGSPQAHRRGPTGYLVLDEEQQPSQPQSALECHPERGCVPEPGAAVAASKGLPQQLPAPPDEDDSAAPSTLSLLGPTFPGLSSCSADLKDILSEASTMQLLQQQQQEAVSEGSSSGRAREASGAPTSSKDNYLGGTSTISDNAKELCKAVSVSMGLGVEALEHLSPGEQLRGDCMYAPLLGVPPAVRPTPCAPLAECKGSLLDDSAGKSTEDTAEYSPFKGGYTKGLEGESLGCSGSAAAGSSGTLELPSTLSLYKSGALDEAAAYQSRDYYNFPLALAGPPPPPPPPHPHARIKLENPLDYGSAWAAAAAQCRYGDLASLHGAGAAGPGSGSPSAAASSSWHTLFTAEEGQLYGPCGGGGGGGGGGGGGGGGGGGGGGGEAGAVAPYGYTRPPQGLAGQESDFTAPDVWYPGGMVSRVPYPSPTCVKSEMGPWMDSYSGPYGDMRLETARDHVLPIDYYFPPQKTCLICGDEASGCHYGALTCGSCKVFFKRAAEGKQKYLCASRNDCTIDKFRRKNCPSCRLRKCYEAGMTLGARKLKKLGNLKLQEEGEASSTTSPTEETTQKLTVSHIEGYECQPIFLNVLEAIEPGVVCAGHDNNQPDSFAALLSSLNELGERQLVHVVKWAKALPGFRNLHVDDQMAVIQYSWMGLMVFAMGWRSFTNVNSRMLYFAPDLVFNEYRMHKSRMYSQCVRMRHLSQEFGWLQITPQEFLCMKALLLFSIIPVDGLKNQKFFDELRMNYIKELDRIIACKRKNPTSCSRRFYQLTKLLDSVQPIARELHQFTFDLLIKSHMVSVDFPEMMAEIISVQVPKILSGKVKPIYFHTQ
# Description: The compounds of Formula I have affinity for the androgen receptor. […] The description below describes how the assay was carried out.
# Competitive binding analysis was performed on baculovirus/Sf9 generated hAR extracts in the presence or absence of different concentrations of test agent and a fixed concentration of ^3H-dihydrotestosterone (^3H-DHT) as tracer. This binding assay method is a modification of a protocol previously described (Liao S., et. al., J. Steroid Biochem., 20:11-17, 1984). Briefly, progressively decreasing concentrations of compounds are incubated in the presence of hAR extract (Chang et al., P.N.A.S., Vol. 89, pp. 5546-5950, 1992), hydroxylapatite, and 1 nM ^3H-DHT for one hour at 4° C. Subsequently, the binding reactions are washed three times to completely remove excess unbound ^3H-DHT. hAR bound ^3H-DHT levels are determined in the presence of compounds (i.e. competitive binding) and compared to levels bound when no competitor is present (i.e. maximum binding). Compound binding affinity to the hAR is expressed as the concentration of compound at which one half of the maximum binding is inhibited. Table II below provides the results that were obtained for selected compounds (reported data is the mean of multiple tests as shown below).
# [2] = target: T2, androgen receptor in MDA-MB453-MMTV clone 54-19 cells (Homo sapiens, UniProt P10275); experiment: AR Antagonist Cell Assay (MMTV-luciferase reporter, DHT-induced); format: cell-based; conditions: MDA-MB453-MMTV clone 54-19, 100 pM DHT, 17 hr; mean of multiple tests
# T2 sequence (P10275 1-920 Q868H): T1 sequence (P10275 1-920) with Q868H
# Description: The compounds ability to antagonize the effects of androgen on the androgen receptor were determined in a whole cell assay as described immediately below.
# Cell line: MDA-MB453-MMTV clone 54-19. This cell line is a stable transfected cell line with MDA-MB453 cell background (a human breast tumor cell line expressing androgen receptor). A MMTV minimal promoter containing ARE was first cloned in front of a firefly luciferase reporter gene. Then the cascade was cloned into transfection vector pUV120puro. Electroporation method was used for transfecting MDA-MB-453 cell. Puromycin resistant stable cell line was selected.
# Culture medium: DMEM (high glucose, Gibco cat #: 11960-044), 10% FBS, and 1% L-glutamine
# Plating medium: DMEM (phenol red free), 10% charcoal treated HyClone serum, 1% L-glutamine
# Assay medium: DMEM (phenol red free), 1% charcoal treated HyClone serum, 1% L-glutamine, and 1% penicillin/streptomycin
# 3× luciferase buffer: 2% beta-mercaptoethanol, 0.6% ATP, 0.0135% luciferine in cell lysis buffer
# Cells are maintained in culture medium, splitting cells when they reach 80-90% confluence. To test compounds, 10,000 cells/well are plated to opaque 96 cell culture plate in 100 ul/well plating medium, culture for overnight at 37° C. in cell culture incubator. Carefully remove plating medium, then add 80 ul/well of pre-warmed assay medium, add 10 ul/well testing compound (final concentration at) 1000 nM, 200 nM, 40 nM, 8 nM, 1.6 nM, and 0.32 nM), incubate at 37° C. for 30 minutes. Add 10 ul/well freshly prepared DHT (final concentration at 100 pM) to each well, incubate at 37° C. for 17 hr (overnight). Add 50 ul/well 3× luciferase buffer, incubate at room temperature for 5 minutes, then count on Luminometer. The fold induction over background by 100 pM DHT in the absence of testing compounds is standardized as 100% and experimental result is expressed as percentage of inhibition by testing compounds.
# The results are reported as the mean of multiple tests as described below (the numbers of tests are indicated in the footnote). ND denotes that the compound was not tested.
# [3] = hAR extract, read-out: AR Binding IC50
SMILES,"IC50 ([1]; AR Binding IC50, hAR extract) [nM]",IC50 [2] [nM],"IC50 [1, 3] [nM]"
"CC(Oc1ccc(C#N)c(C(F)(F)F)c1)c1cccc(O)c1 (racemic) [Example 8, 4-[1-(3-Hydroxyphenyl)ethoxy]-2-(trifluoromethyl)benzonitrile]",21,529,
"CCCC(Oc1ccc(C#N)c(C(F)(F)F)c1)c1ccccn1 (stereo not drawn) [Example 81, 4-(1-Pyridin-2-yl-butoxy)-2-trifluoromethyl-benzonitrile]",54.3,280,
"CCCCCCC(Oc1ccc(C#N)c(C(F)(F)F)c1)c1ccccc1 (stereo not drawn) [Example 46, 4-(1-Phenyl-heptyloxy)-2-trifluoromethyl-benzonitrile]",,> 1000,204
"CCOc1ccccc1COc1ccc(C#N)c(C(F)(F)F)c1 [Example 55, 4-(2-Ethoxy-benzyloxy)-2-trifluoromethyl-benzonitrile]",,> 1000,125
"CCC(Oc1ccc(C#N)c(C(F)(F)F)c1)c1cncc(O)c1 (stereo not drawn) [Example 94, 4-[1-(5-Hydroxy-pyridin-3-yl)-propoxy]-2-trifluoromethyl-benzonitrile]",75,202,
"COC(=O)c1ccc(C(C)Oc2ccc(C#N)c(C(F)(F)F)c2)cc1 (racemic) [Example 29, (±)-4-[1-(4-Cyano-3-trifluoromethyl-phenoxy)-ethyl]-benzoic Acid Methyl Ester]",,132,102
"CCC(Oc1ccc(C#N)c(C(F)(F)F)c1)c1cccc(O)c1 (single isomer, unassigned; (+)) [Example 12, (+)4-[1-(3-Hydroxyphenyl)propoxy]-2-(trifluoromethyl)benzonitrile]",19,> 1000,
"CC(Oc1ccc(C#N)c(C(F)(F)F)c1)c1cccc(C#N)c1 (stereo not drawn) [Example 30, 4-[1-(3-Cyano-phenyl)-ethoxy]-2-trifluoromethyl-benzonitrile]",22,7,
"Cc1cccc(C(CC(C)C)Oc2ccc(C#N)c(C(F)(F)F)c2)n1 (stereo not drawn) [Example 85, 4-[3-Methyl-1-(6-methyl-pyridin-2-yl)-butoxy]-2-trifluoromethyl-benzonitrile]",,> 1000,167
"N#Cc1ccc(OC(Cc2ccccc2)c2ccccn2)cc1C(F)(F)F (stereo not drawn) [Example 82, 4-(2-Phenyl-1-pyridin-2-yl-ethoxy)-2-trifluoromethyl-benzonitrile]",,> 1000,238
"CC(Oc1ccc(C#N)c(C(F)(F)F)c1)c1ccccc1F (stereo not drawn) [Example 24, 4-[1-(2-Fluoro-phenyl)-ethoxy]-2-trifluoromethyl-benzonitrile]",79,826,
"CC(C)(Oc1ccc(C#N)c(Cl)c1)c1ccccc1 [Example 70, 2-Chloro-4-(1-methyl-1-phenyl-ethoxy)-benzonitrile]",53,> 1000,
"CC(Oc1ccc(C#N)c(C(F)(F)F)c1)c1cccc(C#N)c1 (single isomer, unassigned) [Example 78, 4-[1-(3-Cyano-phenyl)-ethoxy]-2-trifluoromethyl-benzonitrile]",37,47,
"N#Cc1ccc(OCc2cccc(O)c2)cc1Cl [Example 66, 2-Chloro-4-(3-hydroxy-benzyloxy)-benzonitrile]",11,4,
"CC(C)(Oc1ccc(C#N)cc1Cl)c1ccccc1 [Example 37, 3-Chloro-4-(1-methyl-1-phenyl-ethoxy)-benzonitrile]",,> 1000,184
"CCCCC(Oc1ccc(C#N)c(C(F)(F)F)c1)c1ccccn1 (stereo not drawn) [Example 84, 4-(1-Pyridin-2-yl-pentyloxy)-2-trifluoromethyl-benzonitrile]",,> 667,161
"C=CCC(Oc1ccc(C#N)c(C(F)(F)F)c1)c1cccc(O)c1 (single isomer, unassigned; (+)) [Example 18, (+)4-{[1-(3-Hydroxyphenyl)but-3-enyl]oxy}-2-(trifluoromethyl)benzonitrile]",17,86,
"CC(Oc1ccc(C#N)c(C(F)(F)F)c1)c1cccc(Cl)c1 (stereo not drawn) [Example 26, 4-[1-(3-Chloro-phenyl)-ethoxy]-2-trifluoromethyl-benzonitrile]",122,56,
"N#Cc1ccc(OCc2ccccc2)cc1Cl [Example 59, 4-Benzyloxy-2-chloro-benzonitrile]",,108,38
"CC(C)CC(Oc1ccc(C#N)c(C(F)(F)F)c1)c1cccc(O)c1 (racemic) [Example 20, 4-[1-(3-Hydroxyphenyl)-3-methylbutoxy]-2-(trifluoromethyl)benzonitrile]",183,40,
"C=CCC(Oc1ccc(C#N)c(C(F)(F)F)c1)c1cccc(O)c1 (racemic) [Example 17, 4-{[1-(3-Hydroxyphenyl)but-3-enyl]oxy}-2-(trifluoromethyl)benzonitrile]",14,105,
